In ChEMBL document CHEMBL5537166, “PROTACs Targeting BRM (SMARCA2) Afford Selective In Vivo Degradation over BRG1 (SMARCA4) and Are Active in BRG1 Mutant Xenograft Tumor Models” (J Med Chem, 2024):

Assays:
NCI-H1944 = experiment: Antiproliferative activity against BRM-dependent human NCI-H1944 cells assessed as growth inhibition incubated for 7 days by celltiter glo 2.0 assay; format: functional; details: NCI-H1944, 168 h, time 7 day
[1] = target: von Hippel-Lindau disease tumor suppressor/SWI/SNF-related matrix-associated actin-dependent regulator of chromatin subfamily A member 2 (Homo sapiens, UniProt P51531+P40337); experiment: PROTAC activity at VHL/BRM in human SW1573 cells assessed as induction of […] incubated for 22 hrs by Western blotting analysis; format: cell-based
von Hippel-Lindau disease tumor suppressor/SWI/SNF-related matrix-associated actin-dependent regulator of chromatin subfamily A member 2, sequence (P51531 whole entry): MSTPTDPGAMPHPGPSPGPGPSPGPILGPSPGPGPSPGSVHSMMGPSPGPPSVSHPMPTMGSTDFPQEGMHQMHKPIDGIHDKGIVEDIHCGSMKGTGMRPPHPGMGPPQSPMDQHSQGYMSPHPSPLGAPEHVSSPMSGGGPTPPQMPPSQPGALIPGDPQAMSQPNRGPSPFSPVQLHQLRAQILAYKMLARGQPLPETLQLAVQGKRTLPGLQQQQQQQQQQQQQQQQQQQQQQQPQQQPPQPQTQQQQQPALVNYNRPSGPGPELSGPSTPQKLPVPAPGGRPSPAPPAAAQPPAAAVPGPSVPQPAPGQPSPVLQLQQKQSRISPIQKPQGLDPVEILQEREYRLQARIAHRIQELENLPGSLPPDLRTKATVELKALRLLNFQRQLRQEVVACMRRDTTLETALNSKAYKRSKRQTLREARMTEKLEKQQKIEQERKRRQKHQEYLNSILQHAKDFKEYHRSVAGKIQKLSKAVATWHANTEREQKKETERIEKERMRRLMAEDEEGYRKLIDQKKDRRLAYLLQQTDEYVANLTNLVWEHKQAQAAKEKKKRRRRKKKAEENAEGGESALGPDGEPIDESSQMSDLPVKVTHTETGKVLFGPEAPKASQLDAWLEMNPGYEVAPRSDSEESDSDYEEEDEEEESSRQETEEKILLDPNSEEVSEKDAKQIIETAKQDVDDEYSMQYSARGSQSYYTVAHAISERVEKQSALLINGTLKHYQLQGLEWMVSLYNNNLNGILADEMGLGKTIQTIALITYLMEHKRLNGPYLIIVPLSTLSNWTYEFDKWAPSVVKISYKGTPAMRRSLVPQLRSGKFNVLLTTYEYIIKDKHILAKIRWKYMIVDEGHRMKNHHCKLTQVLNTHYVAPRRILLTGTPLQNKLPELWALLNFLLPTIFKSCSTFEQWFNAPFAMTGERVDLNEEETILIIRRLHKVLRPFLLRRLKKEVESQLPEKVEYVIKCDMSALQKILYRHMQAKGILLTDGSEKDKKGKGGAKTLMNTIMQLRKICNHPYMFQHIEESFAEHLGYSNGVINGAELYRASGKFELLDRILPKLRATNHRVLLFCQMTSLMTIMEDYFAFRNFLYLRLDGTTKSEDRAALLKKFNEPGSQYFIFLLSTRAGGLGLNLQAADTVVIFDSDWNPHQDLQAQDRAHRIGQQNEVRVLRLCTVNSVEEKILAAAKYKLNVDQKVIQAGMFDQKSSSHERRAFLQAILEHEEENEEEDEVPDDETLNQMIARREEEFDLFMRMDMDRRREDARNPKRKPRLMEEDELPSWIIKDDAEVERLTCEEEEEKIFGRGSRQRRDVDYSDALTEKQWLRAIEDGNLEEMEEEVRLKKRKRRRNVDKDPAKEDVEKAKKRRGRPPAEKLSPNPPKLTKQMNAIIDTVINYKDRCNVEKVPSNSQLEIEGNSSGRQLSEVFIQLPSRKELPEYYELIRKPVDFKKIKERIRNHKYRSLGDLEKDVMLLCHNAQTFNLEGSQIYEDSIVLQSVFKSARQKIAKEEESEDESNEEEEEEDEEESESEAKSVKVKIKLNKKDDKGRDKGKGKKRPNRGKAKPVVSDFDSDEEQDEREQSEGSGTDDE
von Hippel-Lindau disease tumor suppressor/SWI/SNF-related matrix-associated actin-dependent regulator of chromatin subfamily A member 2, sequence (P40337 whole entry): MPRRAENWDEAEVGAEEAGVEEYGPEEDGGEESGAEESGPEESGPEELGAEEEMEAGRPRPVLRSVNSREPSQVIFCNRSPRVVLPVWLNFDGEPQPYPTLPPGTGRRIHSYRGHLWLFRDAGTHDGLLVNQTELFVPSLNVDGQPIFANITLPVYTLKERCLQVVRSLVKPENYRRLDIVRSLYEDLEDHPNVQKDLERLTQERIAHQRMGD

[2] = target: von Hippel-Lindau disease tumor suppressor/SWI/SNF-related matrix-associated actin-dependent regulator of chromatin subfamily A member 4 (Homo sapiens, UniProt P51532+P40337); experiment: PROTAC activity at VHL/ BRG1 in human SW1573 cells assessed as induction of BRG1 degradation incubated for 22 hrs by Western blotting analysis; format: cell-based
von Hippel-Lindau disease tumor suppressor/SWI/SNF-related matrix-associated actin-dependent regulator of chromatin subfamily A member 4, sequence (P51532 whole entry): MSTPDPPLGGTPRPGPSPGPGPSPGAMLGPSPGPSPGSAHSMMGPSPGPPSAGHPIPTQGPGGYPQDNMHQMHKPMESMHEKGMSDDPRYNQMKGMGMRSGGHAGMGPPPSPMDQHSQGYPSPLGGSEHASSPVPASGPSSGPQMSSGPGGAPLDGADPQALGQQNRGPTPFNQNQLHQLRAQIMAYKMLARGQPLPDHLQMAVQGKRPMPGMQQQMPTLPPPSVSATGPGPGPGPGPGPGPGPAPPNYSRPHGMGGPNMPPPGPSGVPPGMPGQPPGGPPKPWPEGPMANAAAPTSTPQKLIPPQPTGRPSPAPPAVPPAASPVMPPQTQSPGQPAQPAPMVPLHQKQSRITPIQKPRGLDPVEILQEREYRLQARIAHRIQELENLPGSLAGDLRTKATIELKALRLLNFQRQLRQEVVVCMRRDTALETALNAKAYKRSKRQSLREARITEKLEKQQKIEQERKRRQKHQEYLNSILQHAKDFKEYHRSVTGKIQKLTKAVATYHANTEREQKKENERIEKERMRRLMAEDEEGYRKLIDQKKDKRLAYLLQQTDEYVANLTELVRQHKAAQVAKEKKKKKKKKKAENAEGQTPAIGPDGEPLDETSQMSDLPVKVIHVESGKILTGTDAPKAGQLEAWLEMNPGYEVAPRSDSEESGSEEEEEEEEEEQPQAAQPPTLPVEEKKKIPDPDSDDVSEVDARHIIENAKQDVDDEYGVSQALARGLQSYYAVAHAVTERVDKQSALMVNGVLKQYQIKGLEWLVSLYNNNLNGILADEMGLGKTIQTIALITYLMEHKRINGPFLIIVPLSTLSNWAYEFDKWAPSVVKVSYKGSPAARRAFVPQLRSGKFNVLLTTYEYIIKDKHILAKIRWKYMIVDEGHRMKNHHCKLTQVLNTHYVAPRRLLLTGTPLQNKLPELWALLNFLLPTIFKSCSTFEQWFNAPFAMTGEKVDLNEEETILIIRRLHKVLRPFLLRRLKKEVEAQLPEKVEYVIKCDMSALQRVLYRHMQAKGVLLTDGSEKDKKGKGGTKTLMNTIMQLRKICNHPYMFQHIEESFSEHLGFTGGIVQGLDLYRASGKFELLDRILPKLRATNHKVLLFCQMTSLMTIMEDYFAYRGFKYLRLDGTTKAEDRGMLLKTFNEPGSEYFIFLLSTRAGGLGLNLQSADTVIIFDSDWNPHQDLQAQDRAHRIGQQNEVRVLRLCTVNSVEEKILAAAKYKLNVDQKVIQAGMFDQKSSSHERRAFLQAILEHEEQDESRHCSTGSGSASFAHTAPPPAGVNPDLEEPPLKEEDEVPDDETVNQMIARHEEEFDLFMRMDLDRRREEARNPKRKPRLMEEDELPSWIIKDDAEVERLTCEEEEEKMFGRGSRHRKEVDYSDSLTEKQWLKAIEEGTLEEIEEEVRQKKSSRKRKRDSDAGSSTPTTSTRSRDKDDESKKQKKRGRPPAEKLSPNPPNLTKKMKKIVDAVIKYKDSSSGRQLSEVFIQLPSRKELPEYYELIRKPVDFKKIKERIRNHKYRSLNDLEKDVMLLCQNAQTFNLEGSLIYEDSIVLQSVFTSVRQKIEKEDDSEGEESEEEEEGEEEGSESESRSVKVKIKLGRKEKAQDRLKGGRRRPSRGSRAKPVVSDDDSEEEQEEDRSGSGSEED
von Hippel-Lindau disease tumor suppressor/SWI/SNF-related matrix-associated actin-dependent regulator of chromatin subfamily A member 4, sequence (P40337 whole entry): as the sequence (P40337 whole entry) above

Homo sapiens = organism: Homo sapiens; experiment: Ratio of DC50 for VHL/ BRG1 in human SW1573 cells to DC50 for VHL/BRM in human SW1573 cells; format: cell-based
[3] = Drug concentration in mouse tumor at 20 mg/kg, ip measured for 96 hrs; format: ADME, organism-based, Neoplasm; details: read-out: Ct
[4] = Plasma protein binding in mouse incubated for 15 mins by LC-MS/MS analysis; format: ADME, cell-free; details: read-out: PPB (converted)
Mus musculus [5] = experiment: In-vivo PROTAC activity at BRM/VHL in CD-1 mouse xenografted with Murine stromal cell line at 20 mg/kg, iv measured for 96 hrs; format: functional
[6] = Clearance in mouse at 1 mg/kg, iv measured upto 60 mins by LC-MS/MS analysis; format: ADME, organism-based; details: in vivo, 1 h
Mus musculus [7] = experiment: In-vivo PROTAC activity at BRM/VHL in CD-1 mouse xenografted with human HCC2302 cells at 20 mg/kg, iv measured for 96 hrs; format: functional
Calu-6 = experiment: Antiproliferative activity against human Calu-6 cells assessed as growth inhibition incubated for 7 days by celltiter glo 2.0 assay; format: functional; details: Calu-6, 168 h, time 7 day
[8] = Half life in mouse at 1 mg/kg, iv measured upto 60 mins by LC-MS/MS analysis; format: ADME, organism-based; details: in vivo
[9] = Metabolic stability in human liver microsome assessed as hepatic extraction ratio measured upto 60 mins by LC-MS/MS analysis; format: ADME; details: liver microsomes
[10] = Drug concentration in mouse plasma measured for 24 hrs; format: ADME, cell-free

Row | Structure (SMILES) | GI50 (NCI-H1944) [nM] | DC50 [1] [nM] | DC50 [2] [nM] | Ratio (Homo sapiens) | concentration at 96 h [3] [ng/g] | fraction unbound at 0.25 h [4] | Activity (Mus musculus [5]) [%] | clearance [6] [mL/min/kg] | Activity (Mus musculus [7]) [%] | GI50 (Calu-6) [nM] | half-life [8] [h] | hepatic extraction ratio at 1 h [9] | concentration at 24 h [10] [nM]
1 | Cc1ncsc1-c1ccc([C@H](C)NC(=O)[C@@H]2C[C@H](O)CN2C(=O)[C@@H](c2cc(OCCN3CCC(O[C@H]4C[C@H](Oc5cc(N6C7CCC6CN(c6cc(-c8ccccc8O)nnc6N)C7)ccn5)C4)CC3)no2)C(C)C)cc1 | > 300 | – | – | – | – | – | – | – | – | – | – | – | –
2 | Cc1ncsc1-c1ccc(CNC(=O)[C@@H]2C[C@@H](O)CN2C(=O)[C@@H](c2cc(OCCOCCOCCOc3cc(N4C5CCC4CN(c4cc(-c6ccccc6O)nnc4N)C5)ccn3)no2)C(C)C)cc1 | – | 0.76 | 5.9 | 2.2 | – | – | – | – | – | – | – | – | –
3 | Cc1ncsc1-c1ccc([C@H](C)NC(=O)[C@@H]2C[C@@H](O)CN2C(=O)[C@@H](c2cc(N3CCN(C[C@H]4C[C@H](Oc5cc(N6C7CCC6CN(c6cc(-c8ccccc8O)nnc6N)C7)ccn5)C4)CC3)no2)C(C)C)cc1 | 0.45 | 0.09 | 1.3 | – | 75 | 0.011 | 53 | 11 | 87 | 6.8 | 3.7 | 0.27 | –
4 | Cc1ncsc1-c1ccc(CNC(=O)[C@@H]2C[C@@H](O)CN2C(=O)[C@@H](NC(=O)COCCOCCOCCOc2cc(N3C4CCC3CN(c3cc(-c5ccccc5O)nnc3N)C4)ccn2)C(C)(C)C)cc1 | – | 32 | 703 | 7.8 | – | – | – | – | – | – | – | – | –
5 | Cc1ncsc1-c1ccc([C@H](C)NC(=O)[C@@H]2C[C@@H](O)CN2C(=O)[C@@H](c2cc(N3CCC(CN4CCC(Oc5cc(N6C7CCC6CN(c6cc(-c8ccccc8O)nnc6N)C7)ccn5)CC4)CC3)no2)C(C)C)cc1 | 0.23 | 0.053 | 0.99 | – | 774 | 0.006 | 59 | 6.7 | 83 | 3.7 | 6.7 | 0.41 | –
6 | Cc1ncsc1-c1ccc([C@H](C)NC(=O)[C@@H]2C[C@@H](O)CN2C(=O)[C@@H](c2cc(N3CCN(CC4CCN(C[C@H]5C[C@H](Oc6cc(N7C8CCC7CN(c7cc(-c9ccccc9O)nnc7N)C8)ccn6)C5)CC4)CC3)no2)C(C)C)cc1 | 0.72 | 0.062 | 1.4 | – | – | 0.035 | 83 | 12 | 95 | 10 | 17 | 0.15 | –
7 | Cc1ncsc1-c1ccc([C@H](C)NC(=O)[C@@H]2C[C@@H](O)CN2C(=O)[C@@H](c2cc(OCCN3CCN(CCOc4cc(N5C6CCC5CN(c5cc(-c7ccccc7O)nnc5N)C6)ccn4)C[C@@H]3C)no2)C(C)C)cc1 | 0.72 | 0.11 | 2.7 | 25 | – | – | – | – | – | 38 | – | 0.83 | –
8 | Cc1ncsc1-c1ccc(CNC(=O)[C@@H]2C[C@@H](O)CN2C(=O)[C@@H](c2cc(OCCN3CCN(CCOc4cc(N5C6CCC5CN(c5cc(-c7ccccc7O)nnc5N)C6)ccn4)CC3)no2)C(C)C)cc1 | 3.6 | 0.39 | 9.5 | – | – | 0.015 | – | – | – | 62 | – | 0.65 | –
9 | Cc1ncsc1-c1ccc([C@H](C)NC(=O)[C@@H]2C[C@H](O)CN2C(=O)[C@@H](c2cc(N3CCC(CN4CCC(O[C@H]5C[C@H](Oc6cc(N7C8CCC7CN(c7cc(-c9ccccc9O)nnc7N)C8)ccn6)C5)CC4)CC3)no2)C(C)C)cc1 | > 300 | – | – | – | – | – | – | – | – | – | – | – | –
10 | Cc1ncsc1-c1ccc([C@H](C)NC(=O)[C@@H]2C[C@@H](O)CN2C(=O)[C@@H](c2cc(OCC#Cc3ccc(O[C@H]4C[C@H](Oc5cc(N6C7CCC6CN(c6cc(-c8ccccc8O)nnc6N)C7)ccn5)C4)cn3)no2)C(C)C)cc1 | 0.7 | 27 | 5.1 | 19 | – | 0.016 | – | 22 | – | 28 | 1.5 | 0.15 | 129
